Measurements from paper PMC6199309, “A therapeutic approach to pantothenate kinase associated neurodegeneration” (Nature Communications, 2018).

Assays:
TSSK1B = molecular target: T1, TSSK1B (Homo sapiens, UniProt Q9BXA7); assay: KINOMEscan; format: binding; details: read-out: %Ctrl @ 10000nM
T1 construct: DNA label for qPCR (T7 phage fusion or DNA tag); purchased DiscoverX scanMAX; host or cells: E. coli BL21-derived (T7 phage) or HEK-293

[1] = molecular target: T2, ABL1(T315I)-nonphosphorylated (Homo sapiens, UniProt P00519, T315I); assay: KINOMEscan; format: binding; details: read-out: %Ctrl @ 10000nM
T2 construct: purchased DiscoverX KINOMEscan

GCN2(Kin.Dom.2,S808G) = molecular target: T3, GCN2(Kin.Dom.2,S808G) (Homo sapiens, UniProt Q9P2K8, S808G); assay: KINOMEscan; format: binding; details: read-out: %Ctrl @ 10000nM
T3 construct: GCN2(Kin.Dom.2,S808G); purchased DiscoverX KINOMEscan

TIE2 = molecular target: T4, TIE2 (Homo sapiens, UniProt Q02763); assay: KINOMEscan; format: binding; details: read-out: %Ctrl @ 10000nM
T4 construct: purchased DiscoverX KINOMEscan

NIK = molecular target: T5, NIK (Homo sapiens, UniProt Q99558); assay: KINOMEscan; format: binding; details: read-out: %Ctrl @ 10000nM
T5 construct: purchased DiscoverX KINOMEscan

PDGFRB = molecular target: T6, PDGFRB (Homo sapiens, UniProt P09619); assay: KINOMEscan; format: binding; details: read-out: %Ctrl @ 10000nM
T6 construct: purchased DiscoverX KINOMEscan

FYN = molecular target: T7, FYN (Homo sapiens, UniProt P06241); assay: KINOMEscan; format: binding; details: read-out: %Ctrl @ 10000nM
T7 construct: purchased DiscoverX KINOMEscan

[2] = molecular target: T8, ABL1(F317I)-phosphorylated (Homo sapiens, UniProt P00519, F317I); assay: KINOMEscan; format: binding; details: read-out: %Ctrl @ 10000nM
T8 construct: purchased DiscoverX KINOMEscan

CDKL5 = molecular target: T9, CDKL5 (Homo sapiens, UniProt O76039); assay: KINOMEscan; format: binding; details: read-out: %Ctrl @ 10000nM
T9 construct: purchased DiscoverX KINOMEscan

[3] = molecular target: T10, ABL1(F317I)-nonphosphorylated (Homo sapiens, UniProt P00519, F317I); assay: KINOMEscan; format: binding; details: read-out: %Ctrl @ 10000nM
T10 construct: purchased DiscoverX KINOMEscan

BRSK2 = molecular target: T11, BRSK2 (Homo sapiens, UniProt Q8IWQ3); assay: KINOMEscan; format: binding; details: read-out: %Ctrl @ 10000nM
T11 construct: purchased DiscoverX KINOMEscan

NEK2 = molecular target: T12, NEK2 (Homo sapiens, UniProt P51955); assay: KINOMEscan; format: binding; details: read-out: %Ctrl @ 10000nM
T12 construct: purchased DiscoverX KINOMEscan

NEK5 = molecular target: T13, NEK5 (Homo sapiens, UniProt Q6P3R8); assay: KINOMEscan; format: binding; details: read-out: %Ctrl @ 10000nM
T13 construct: purchased DiscoverX KINOMEscan

CDKL2 = molecular target: T14, CDKL2 (Homo sapiens, UniProt Q92772); assay: KINOMEscan; format: binding; details: read-out: %Ctrl @ 10000nM
T14 construct: purchased DiscoverX KINOMEscan

MINK = molecular target: T15, MINK (Homo sapiens, UniProt Q8N4C8); assay: KINOMEscan; format: binding; details: read-out: %Ctrl @ 10000nM
T15 construct: purchased DiscoverX KINOMEscan

MEK4 = molecular target: T16, MEK4 (Homo sapiens, UniProt P45985); assay: KINOMEscan; format: binding; details: read-out: %Ctrl @ 10000nM
T16 construct: purchased DiscoverX KINOMEscan

SNRK = molecular target: T17, SNRK (Homo sapiens, UniProt Q9NRH2); assay: KINOMEscan; format: binding; details: read-out: %Ctrl @ 10000nM
T17 construct: purchased DiscoverX KINOMEscan

ACVR1B = molecular target: T18, ACVR1B (Homo sapiens, UniProt P36896); assay: KINOMEscan; format: binding; details: read-out: %Ctrl @ 10000nM
T18 construct: purchased DiscoverX KINOMEscan

LKB1 = molecular target: T19, LKB1 (Homo sapiens, UniProt Q15831); assay: KINOMEscan; format: binding; details: read-out: %Ctrl @ 10000nM
T19 construct: purchased DiscoverX KINOMEscan

MEK3 = molecular target: T20, MEK3 (Homo sapiens, UniProt P46734); assay: KINOMEscan; format: binding; details: read-out: %Ctrl @ 10000nM
T20 construct: purchased DiscoverX KINOMEscan

ERBB2 = molecular target: T21, ERBB2 (Homo sapiens, UniProt P04626); assay: KINOMEscan; format: binding; details: read-out: %Ctrl @ 10000nM
T21 construct: purchased DiscoverX KINOMEscan

PIK4CB = molecular target: T22, PIK4CB (Homo sapiens, UniProt Q9UBF8); assay: KINOMEscan; format: binding; details: read-out: %Ctrl @ 10000nM
T22 construct: purchased DiscoverX KINOMEscan

FLT3 = molecular target: T23, FLT3 (Homo sapiens, UniProt P36888); assay: KINOMEscan; format: binding; details: read-out: %Ctrl @ 10000nM
T23 construct: purchased DiscoverX KINOMEscan

KIT(D816V) = molecular target: T24, KIT(D816V) (Homo sapiens, UniProt P10721, D816V); assay: KINOMEscan; format: binding; details: read-out: %Ctrl @ 10000nM
T24 construct: purchased DiscoverX KINOMEscan

MAP4K2 = molecular target: T25, MAP4K2 (Homo sapiens, UniProt Q12851); assay: KINOMEscan; format: binding; details: read-out: %Ctrl @ 10000nM
T25 construct: purchased DiscoverX KINOMEscan

HIPK1 = molecular target: T26, HIPK1 (Homo sapiens, UniProt Q86Z02); assay: KINOMEscan; format: binding; details: read-out: %Ctrl @ 10000nM
T26 construct: purchased DiscoverX KINOMEscan

tissue CoA = assay: Mouse efficacy testing: tissue CoA levels; format: in vivo
Procedure: C57Bl6/J mice (8-week-old) were purchased from Jackson Laboratory and were fed either a regular diet (autoclavable rodent breeder diet, Labdiet) or an isocaloric, pantothenic acid-supplemented diet (1000 ppm) for 2 weeks prior to the experiment. The mice were maintained at room temperature 72° ± 2 °F, humidity 50 ± 10% and a 14 h light /10 h dark cycle with the dark cycle starting at 18:00 h. Water was supplied ad libitum. The mice were randomized into the treatment arms to achieve a normal weight distribution. […] The mice were euthanized and tissues harvested 4 h after the last dose. The tissue samples were used for total CoA, pantothenate and pantazine determinations. Blood was collected from euthanized animals, plasma or serum was prepared and stored frozen until analysis. Organs, including liver, forebrain, and hindbrain were quickly excised from euthanized animals and immediately flash frozen in liquid N2 or immersed in RNAlater® (Qiagen) overnight prior to freezing. Forebrain and hindbrain regions were identified. Total CoA was determined using 20–50 mg of tissue (liver, forebrain or hindbrain) homogenized in 2 ml of 1 mM KOH. The pH was adjusted to 12.0 with 0.25 M KOH, and incubated at 55 °C for 2 h[23]. The pH of the sample was adjusted to 8.0, and the samples were derivatized with monobromobimane (mBBr) and analyzed by HPLC equipped with a fluorescence detector.

CAMK1 = molecular target: T27, CAMK1 (Homo sapiens, UniProt Q14012); assay: KINOMEscan; format: binding; details: read-out: %Ctrl @ 10000nM
T27 construct: purchased DiscoverX KINOMEscan

MRCKB = molecular target: T28, MRCKB (Homo sapiens, UniProt Q9Y5S2); assay: KINOMEscan; format: binding; details: read-out: %Ctrl @ 10000nM
T28 construct: purchased DiscoverX KINOMEscan

CIT = molecular target: T29, CIT (Homo sapiens, UniProt O14578); assay: KINOMEscan; format: binding; details: read-out: %Ctrl @ 10000nM
T29 construct: purchased DiscoverX KINOMEscan

PAK7 = molecular target: T30, PAK7 (Homo sapiens, UniProt Q9P286); assay: KINOMEscan; format: binding; details: read-out: %Ctrl @ 10000nM
T30 construct: purchased DiscoverX KINOMEscan

CTK = molecular target: T31, CTK (Homo sapiens, UniProt P42679); assay: KINOMEscan; format: binding; details: read-out: %Ctrl @ 10000nM
T31 construct: purchased DiscoverX KINOMEscan

ABL2 = molecular target: T32, ABL2 (Homo sapiens, UniProt P42684); assay: KINOMEscan; format: binding; details: read-out: %Ctrl @ 10000nM
T32 construct: purchased DiscoverX KINOMEscan

T29 sequence (O14578 whole entry): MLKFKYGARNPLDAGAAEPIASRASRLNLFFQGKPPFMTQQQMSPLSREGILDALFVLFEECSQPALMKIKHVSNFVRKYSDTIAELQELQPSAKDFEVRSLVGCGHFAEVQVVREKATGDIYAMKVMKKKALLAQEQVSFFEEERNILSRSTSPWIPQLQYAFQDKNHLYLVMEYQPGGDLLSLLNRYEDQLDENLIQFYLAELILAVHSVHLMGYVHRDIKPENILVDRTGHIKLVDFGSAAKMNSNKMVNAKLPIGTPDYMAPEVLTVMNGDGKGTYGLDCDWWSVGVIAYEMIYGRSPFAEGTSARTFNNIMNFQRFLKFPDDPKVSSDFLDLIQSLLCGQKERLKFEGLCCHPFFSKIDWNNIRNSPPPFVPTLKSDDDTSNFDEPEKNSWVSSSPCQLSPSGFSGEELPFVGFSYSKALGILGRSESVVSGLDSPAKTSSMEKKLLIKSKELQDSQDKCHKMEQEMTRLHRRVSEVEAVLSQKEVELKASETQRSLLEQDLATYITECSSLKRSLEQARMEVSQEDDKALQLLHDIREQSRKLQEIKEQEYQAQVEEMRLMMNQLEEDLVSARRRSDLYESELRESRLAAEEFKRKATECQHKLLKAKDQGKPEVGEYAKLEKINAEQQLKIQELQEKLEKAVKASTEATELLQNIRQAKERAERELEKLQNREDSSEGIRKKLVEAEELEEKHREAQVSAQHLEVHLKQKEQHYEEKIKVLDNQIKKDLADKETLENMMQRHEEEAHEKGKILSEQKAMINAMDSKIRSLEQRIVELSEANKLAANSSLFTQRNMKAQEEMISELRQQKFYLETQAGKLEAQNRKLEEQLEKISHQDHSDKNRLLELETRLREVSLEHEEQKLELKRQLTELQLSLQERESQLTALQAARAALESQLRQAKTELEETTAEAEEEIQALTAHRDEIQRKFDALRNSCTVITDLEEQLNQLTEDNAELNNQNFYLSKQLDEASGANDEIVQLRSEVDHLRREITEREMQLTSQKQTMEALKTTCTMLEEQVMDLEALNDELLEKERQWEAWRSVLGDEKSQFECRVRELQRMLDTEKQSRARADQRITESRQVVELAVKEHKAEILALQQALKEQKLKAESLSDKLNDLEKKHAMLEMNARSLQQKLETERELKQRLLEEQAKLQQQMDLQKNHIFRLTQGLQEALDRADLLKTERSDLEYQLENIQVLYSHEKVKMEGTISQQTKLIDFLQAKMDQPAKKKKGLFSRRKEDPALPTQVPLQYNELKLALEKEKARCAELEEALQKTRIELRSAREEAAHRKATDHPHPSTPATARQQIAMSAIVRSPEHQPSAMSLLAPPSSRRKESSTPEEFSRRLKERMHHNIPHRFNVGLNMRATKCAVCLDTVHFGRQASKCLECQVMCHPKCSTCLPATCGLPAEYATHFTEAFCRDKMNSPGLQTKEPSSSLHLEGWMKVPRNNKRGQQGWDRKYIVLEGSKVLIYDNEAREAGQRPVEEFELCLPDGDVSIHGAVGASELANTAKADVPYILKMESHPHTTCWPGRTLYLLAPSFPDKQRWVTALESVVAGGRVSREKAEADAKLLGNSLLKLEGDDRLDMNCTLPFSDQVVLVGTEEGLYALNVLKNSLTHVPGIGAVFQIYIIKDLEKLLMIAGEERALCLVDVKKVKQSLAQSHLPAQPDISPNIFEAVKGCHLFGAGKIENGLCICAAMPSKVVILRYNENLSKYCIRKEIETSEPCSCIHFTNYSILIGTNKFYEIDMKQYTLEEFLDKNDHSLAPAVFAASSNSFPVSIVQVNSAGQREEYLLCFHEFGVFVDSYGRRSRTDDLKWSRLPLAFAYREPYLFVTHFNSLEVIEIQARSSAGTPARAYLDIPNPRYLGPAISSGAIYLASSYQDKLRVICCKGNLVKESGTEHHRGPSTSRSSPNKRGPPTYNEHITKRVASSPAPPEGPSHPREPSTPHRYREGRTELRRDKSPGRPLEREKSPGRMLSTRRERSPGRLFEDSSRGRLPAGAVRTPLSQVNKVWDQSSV
T24 sequence (P10721 26-976 D816V): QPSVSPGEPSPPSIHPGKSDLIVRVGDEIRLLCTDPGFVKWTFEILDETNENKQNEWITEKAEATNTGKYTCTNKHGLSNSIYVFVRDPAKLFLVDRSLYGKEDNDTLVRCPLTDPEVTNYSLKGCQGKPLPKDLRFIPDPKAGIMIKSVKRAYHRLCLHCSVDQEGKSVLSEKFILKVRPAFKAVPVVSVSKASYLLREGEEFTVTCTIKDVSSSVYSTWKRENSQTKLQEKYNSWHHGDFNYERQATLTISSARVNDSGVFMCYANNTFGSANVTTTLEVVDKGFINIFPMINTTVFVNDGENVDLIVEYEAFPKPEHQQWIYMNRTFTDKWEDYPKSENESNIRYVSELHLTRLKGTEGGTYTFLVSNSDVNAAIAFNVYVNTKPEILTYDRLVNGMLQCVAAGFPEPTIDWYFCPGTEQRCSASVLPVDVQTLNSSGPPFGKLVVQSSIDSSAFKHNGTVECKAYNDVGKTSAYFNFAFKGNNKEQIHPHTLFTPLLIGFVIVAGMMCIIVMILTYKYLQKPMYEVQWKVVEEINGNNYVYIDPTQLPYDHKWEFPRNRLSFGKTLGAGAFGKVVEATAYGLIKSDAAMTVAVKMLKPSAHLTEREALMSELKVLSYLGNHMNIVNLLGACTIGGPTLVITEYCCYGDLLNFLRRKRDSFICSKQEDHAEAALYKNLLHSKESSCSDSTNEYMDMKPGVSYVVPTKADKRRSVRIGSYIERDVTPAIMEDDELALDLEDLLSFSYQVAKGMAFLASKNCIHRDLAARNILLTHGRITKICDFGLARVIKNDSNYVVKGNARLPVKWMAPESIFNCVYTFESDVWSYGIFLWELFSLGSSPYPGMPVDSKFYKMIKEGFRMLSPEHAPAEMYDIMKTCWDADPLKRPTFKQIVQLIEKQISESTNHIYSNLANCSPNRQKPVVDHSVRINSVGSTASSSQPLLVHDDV
T7 sequence (P06241 whole entry): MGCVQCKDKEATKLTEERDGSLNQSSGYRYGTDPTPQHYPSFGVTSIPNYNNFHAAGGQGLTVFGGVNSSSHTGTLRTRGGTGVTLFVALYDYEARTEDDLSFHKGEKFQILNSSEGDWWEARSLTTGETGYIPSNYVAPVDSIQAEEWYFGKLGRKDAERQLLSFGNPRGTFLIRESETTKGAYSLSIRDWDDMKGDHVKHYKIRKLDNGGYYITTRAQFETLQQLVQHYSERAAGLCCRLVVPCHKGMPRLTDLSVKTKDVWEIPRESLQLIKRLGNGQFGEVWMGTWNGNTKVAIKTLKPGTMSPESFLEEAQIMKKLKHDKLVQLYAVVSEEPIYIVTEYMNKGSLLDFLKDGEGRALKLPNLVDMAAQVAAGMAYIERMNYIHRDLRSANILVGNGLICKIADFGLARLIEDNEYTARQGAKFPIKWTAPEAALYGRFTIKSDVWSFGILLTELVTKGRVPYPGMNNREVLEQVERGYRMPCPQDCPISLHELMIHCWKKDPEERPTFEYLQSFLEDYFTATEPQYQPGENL
T23 sequence (P36888 27-993): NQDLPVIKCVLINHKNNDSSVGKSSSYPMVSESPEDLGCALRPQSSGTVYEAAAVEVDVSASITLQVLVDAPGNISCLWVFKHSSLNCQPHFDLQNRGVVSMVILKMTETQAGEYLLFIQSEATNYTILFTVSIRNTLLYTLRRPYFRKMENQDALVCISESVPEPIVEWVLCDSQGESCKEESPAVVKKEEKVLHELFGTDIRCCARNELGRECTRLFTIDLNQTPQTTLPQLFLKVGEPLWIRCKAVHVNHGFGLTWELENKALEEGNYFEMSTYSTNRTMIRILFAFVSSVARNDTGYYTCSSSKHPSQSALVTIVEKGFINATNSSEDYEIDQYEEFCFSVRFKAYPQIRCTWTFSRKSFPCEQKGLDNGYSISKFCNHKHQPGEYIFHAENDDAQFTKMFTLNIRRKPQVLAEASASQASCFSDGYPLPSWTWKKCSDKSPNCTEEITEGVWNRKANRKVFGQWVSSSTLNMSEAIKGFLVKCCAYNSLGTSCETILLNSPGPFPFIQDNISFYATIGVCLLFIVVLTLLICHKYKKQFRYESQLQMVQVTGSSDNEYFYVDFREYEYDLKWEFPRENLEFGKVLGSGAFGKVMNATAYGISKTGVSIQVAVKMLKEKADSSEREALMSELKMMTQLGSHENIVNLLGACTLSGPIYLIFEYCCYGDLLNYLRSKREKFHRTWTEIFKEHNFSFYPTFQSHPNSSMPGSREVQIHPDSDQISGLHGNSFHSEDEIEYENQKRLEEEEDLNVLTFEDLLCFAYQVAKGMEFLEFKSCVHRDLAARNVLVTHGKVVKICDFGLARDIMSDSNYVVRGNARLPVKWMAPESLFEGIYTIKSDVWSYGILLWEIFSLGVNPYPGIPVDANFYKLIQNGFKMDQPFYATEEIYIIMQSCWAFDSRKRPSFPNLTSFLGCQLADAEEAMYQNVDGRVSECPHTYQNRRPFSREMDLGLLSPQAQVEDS
T20 sequence (P46734 whole entry): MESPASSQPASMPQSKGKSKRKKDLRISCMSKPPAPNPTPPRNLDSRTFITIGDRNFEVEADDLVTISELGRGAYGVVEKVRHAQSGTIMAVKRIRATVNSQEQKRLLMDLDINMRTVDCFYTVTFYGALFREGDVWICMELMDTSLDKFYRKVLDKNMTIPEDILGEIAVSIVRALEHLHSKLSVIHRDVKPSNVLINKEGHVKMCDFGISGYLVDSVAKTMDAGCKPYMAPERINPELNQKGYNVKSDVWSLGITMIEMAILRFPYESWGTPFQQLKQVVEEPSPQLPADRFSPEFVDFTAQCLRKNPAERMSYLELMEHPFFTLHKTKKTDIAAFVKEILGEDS

SMILES: CC(C)c1ccc(CC(=O)N2CCN(c3ccc(C#N)nn3)CC2)cc1 [PZ-2891, 6-(4-(2-(4-isopropylphenyl)acetyl)piperazin-1-yl)pyridazine-3-carbonitrile]
- remaining binding at 10 µM (TSSK1B): 99%
- remaining binding at 10 µM [1]: 63%
- remaining binding at 10 µM (GCN2(Kin.Dom.2,S808G)): 87%
- remaining binding at 10 µM (TIE2): 97%
- remaining binding at 10 µM (NIK): 100%
- remaining binding at 10 µM (PDGFRB): 75%
- remaining binding at 10 µM (FYN): 87%
- remaining binding at 10 µM [2]: 89%
- remaining binding at 10 µM (CDKL5): 67%
- remaining binding at 10 µM [3]: 77%
- remaining binding at 10 µM (BRSK2): 81%
- remaining binding at 10 µM (NEK2): 88%
- remaining binding at 10 µM (NEK5): 100%
- remaining binding at 10 µM (CDKL2): 90%
- remaining binding at 10 µM (MINK): 74%
- remaining binding at 10 µM (MEK4): 100%
- remaining binding at 10 µM (SNRK): 85%
- remaining binding at 10 µM (ACVR1B): 97%
- remaining binding at 10 µM (LKB1): 93%
- remaining binding at 10 µM (MEK3): 61%
- remaining binding at 10 µM (ERBB2): 92%
- remaining binding at 10 µM (PIK4CB): 84%
- remaining binding at 10 µM (FLT3): 57%
- remaining binding at 10 µM (KIT(D816V)): 92%
- remaining binding at 10 µM (MAP4K2): 77%
- remaining binding at 10 µM (HIPK1): 61%
- increase in total liver CoA (tissue CoA; 30 mg/kg PZ-2891 alone, oral gavage, 5 doses at 12 h intervals): 50%
- increase in liver CoA levels (tissue CoA; 30 mg/kg PZ-2891 plus 200 mg/kg pantothenate, oral gavage, 5 doses at 12 h intervals): 100%
- muscle CoA levels (tissue CoA; 112 ppm PZ-2891 in chow, 1 week): not elevated
- CoA levels in tissues, 1 week chow (tissue CoA; 112 ppm PZ-2891 in chow, 1000 ppm pantothenate, 1 week): elevated in liver, brain, and to a lesser extent, heart
- total CoA in liver, forebrain and hindbrain (tissue CoA; male and female mice, 5 oral doses every 12 h plus 100 mg/kg pantothenate): dose-dependent increase in total CoA
- weights or behavior of treated animals (tissue CoA; one-month treatment in diet): no difference in the weights or behavior
- liver and brain CoA, 4 weeks diet (tissue CoA; series of PZ-2891 doses in diet, 1000 ppm pantothenate, 4 weeks): significantly elevated
- remaining binding at 10 µM (CAMK1): 93%
- remaining binding at 10 µM (MRCKB): 100%
- remaining binding at 10 µM (CIT): 97%
- remaining binding at 10 µM (PAK7): 73%
- remaining binding at 10 µM (CTK): 77%
- remaining binding at 10 µM (ABL2): 96%
